Laboratory results published in patent EP2161278B1, “Single-chain coiled coil scaffold” (Complix N.V., priority 2008, dated 2010).
Entries after “also recorded” stand apart in the source; their conditions may differ. Peptide text beside a SMILES is read from it.

Experiment: Thermal denaturation of trimeric coiled coil peptides by CD thermal scan (signal at 222 nm versus temperature, curve fitting)
Type: physicochemical
Details: for effect of core substitution on stability (transition temperature) compared to the reference peptide comprising isoleucine at positions 3a and 3d: core mutants at positions 3a and 3d of the reference peptide with glutamine at 2a, Figure 9
Method: The said synthesized peptide was dissolved at a concentration of 292 microM in 20 mM phosphate buffer (PBS), 150 mM NaCl, pH 7.2. The CD spectra were measured between […], at 5 and 90 degrees Celsius (Figure 3). The spectrum at 5 degrees Celsius was indicative of a high alpha-helical secondary structure content, in agreement with the expectation that all heptad regions, but not all of the flanking residues, would assemble as alpha-helical coiled coils.
To analyse whether the temperature-induced transition between helical and nonhelical states was reversible, a forward (up) and backward (down) thermal scan was performed on the same sample, by recording the CD signal at […] as a function of temperature at a scanning rate of about 1 degree Celsius per minute (Figure 4). It was observed that the up and down scans almost perfectly coincided, thereby confirming the quantitative unfolding and refolding of the peptides in the sample.
It was further analyzed whether the thermal unfolding curve of Figure 4 conformed to the thermodynamic equations describing the equilibrium folding/unfolding reaction between three molecules free (monomeric) peptide and one entity of folded (trimeric) complex. This reaction is generally written as 3 peptide <=> peptide3 wherein "<=>" refers to a chemical equilibrium, "peptide" to a monomeric peptide in solution and "peptide3" to a trimeric entity in the folded (assembled, associated) state. This thermal unfolding curve was fitted to the theoretic equations: θ(T) = θM (T) + (θT(T)-θM(T))(1+root(F(-(1)/(2)+sqrt((1)/(4) + (F)/(27))), 3)+root(F(-(1)/(2)-sqrt((1)/(4) + (F)/(27))), 3)) [formula] wherein F = (exp(-(ΔHt)/(RT)(1-T/T1)-(ΔCp)/(RT)(T-Tt-Tln(T/Tt))))/(4) [formula] and T≡ the temperature, in degrees Kelvin, of the sample θ(T)≡ the CD-signal [theta]222 nm, in deg cm^2 dmol^-1, as a function of T θM(T)≡ the CD-signal for 100% free (monomeric) peptide as a function of T θT(T) ≡ the CD-signal for 100% associated (trimeric) peptide as a function of T Tt ≡ the transition temperature, where 50% of the total peptide concentration is associated ΔHt ≡ the enthalpy difference, in kJ per mole peptide, between mono- and trimeric states ΔCp ≡ the heat capacity difference, in J mol^-1 K^-1, between mono- and trimeric states R ≡ the ideal (universal) gas constant ≡ 8.31 J mol^-1 K^-1
The global CD signal was somewhat lower than expected, which could be due to an instrumental deviation, an error in the concentration determination, a lower purity, or a lower than expected alpha-helical content. Nevertheless, the main goal of this experiment was to examine the effect of the glutamine-to-isoleucine mutant on the stability of the complex. […] The estimated transition temperature was around 97 degrees Celsius, although the latter was difficult to determine because of incompleteness of the transition.
All ten peptides were analyzed by thermal CD scanning as in Examples 3 and 4. Fitting of the thermal denaturation curves, as described in Example 3, gave the corresponding transition temperatures shown in Figure 9. […]

CC[C@H](C)[C@H](NC(=O)[C@H](C)NC(=O)[C@H](C)NC(=O)[C@H](CCC(N)=O)NC(=O)[C@H](CCC(N)=O)NC(=O)[C@H](CCCCN)NC(=O)[C@H](CCC(N)=O)NC(=O)[C@@H](NC(=O)[C@H](CCC(=O)O)NC(=O)[C@H](CCC(=O)O)NC(=O)[C@@H](NC(=O)[C@H](CO)NC(=O)[C@H](CCSC)NC(C)=O)[C@@H](C)CC)[C@@H](C)CC)C(=O)N[C@@H](CCC(N)=O)C(=O)N[C@@H](CCCCN)C(=O)N[C@@H](CCC(N)=O)C(=O)N[C@H](C(=O)N[C@@H](C)C(=O)N[C@@H](C)C(=O)N[C@@H](CCC(N)=O)C(=O)N[C@@H](CCC(N)=O)C(=O)N[C@@H](CCCCN)C(=O)N[C@@H](CCC(N)=O)C(=O)N[C@H](C(=O)N[C@@H](Cc1ccc(O)cc1)C(=O)N[C@@H](CCCNC(=N)N)C(=O)N[C@@H](CCSC)C(=O)N[C@H](C(=O)N1CCC[C@H]1C(N)=O)[C@@H](C)O)[C@@H](C)CC)[C@@H](C)CC [3dQ] (Ac-MSIEEIQKQQAAIQKQIAAQQKQIYRMTP-NH2)
effect of core substitution on stability (transition temperature) compared to the reference peptide comprising isoleucine at positions 3a and 3d: disruptive

CC[C@H](C)[C@H](NC(=O)[C@H](C)NC(=O)[C@H](C)NC(=O)[C@H](CCC(N)=O)NC(=O)[C@H](CCC(N)=O)NC(=O)[C@H](CCCCN)NC(=O)[C@H](CCC(N)=O)NC(=O)[C@@H](NC(=O)[C@H](CCC(=O)O)NC(=O)[C@H](CCC(=O)O)NC(=O)[C@@H](NC(=O)[C@H](CO)NC(=O)[C@H](CCSC)NC(C)=O)[C@@H](C)CC)[C@@H](C)CC)C(=O)N[C@@H](CCC(N)=O)C(=O)N[C@@H](CCCCN)C(=O)N[C@@H](CCC(N)=O)C(=O)N[C@H](C(=O)N[C@@H](C)C(=O)N[C@@H](C)C(=O)N[C@@H](CO)C(=O)N[C@@H](CCC(N)=O)C(=O)N[C@@H](CCCCN)C(=O)N[C@@H](CCC(N)=O)C(=O)N[C@H](C(=O)N[C@@H](Cc1ccc(O)cc1)C(=O)N[C@@H](CCCNC(=N)N)C(=O)N[C@@H](CCSC)C(=O)N[C@H](C(=O)N1CCC[C@H]1C(N)=O)[C@@H](C)O)[C@@H](C)CC)[C@@H](C)CC [3dS] (Ac-MSIEEIQKQQAAIQKQIAASQKQIYRMTP-NH2)
effect of core substitution on stability (transition temperature) compared to the reference peptide comprising isoleucine at positions 3a and 3d: disruptive

CC[C@H](C)[C@H](NC(=O)[C@H](C)NC(=O)[C@H](C)NC(=O)[C@H](CCC(N)=O)NC(=O)[C@H](CCC(N)=O)NC(=O)[C@H](CCCCN)NC(=O)[C@H](CCC(N)=O)NC(=O)[C@@H](NC(=O)[C@H](CCC(=O)O)NC(=O)[C@H](CCC(=O)O)NC(=O)[C@@H](NC(=O)[C@H](CO)NC(=O)[C@H](CCSC)NC(C)=O)[C@@H](C)CC)[C@@H](C)CC)C(=O)N[C@@H](CCC(N)=O)C(=O)N[C@@H](CCCCN)C(=O)N[C@@H](CCC(N)=O)C(=O)N[C@H](C(=O)N[C@@H](C)C(=O)N[C@@H](C)C(=O)N[C@H](C(=O)N[C@@H](CCC(N)=O)C(=O)N[C@@H](CCCCN)C(=O)N[C@@H](CCC(N)=O)C(=O)N[C@H](C(=O)N[C@@H](Cc1ccc(O)cc1)C(=O)N[C@@H](CCCNC(=N)N)C(=O)N[C@@H](CCSC)C(=O)N[C@H](C(=O)N1CCC[C@H]1C(N)=O)[C@@H](C)O)[C@@H](C)CC)C(C)C)[C@@H](C)CC [3dV] (Ac-MSIEEIQKQQAAIQKQIAAVQKQIYRMTP-NH2)
effect of core substitution on stability (transition temperature) compared to the reference peptide comprising isoleucine at positions 3a and 3d: relatively strong

CC[C@H](C)[C@H](NC(=O)[C@H](C)NC(=O)[C@H](C)NC(=O)[C@@H](NC(=O)[C@H](CCC(N)=O)NC(=O)[C@H](CCCCN)NC(=O)[C@H](CCC(N)=O)NC(=O)[C@@H](NC(=O)[C@H](CCC(=O)O)NC(=O)[C@H](CCC(=O)O)NC(=O)[C@@H](NC(=O)[C@H](CO)NC(=O)[C@H](CCSC)NC(C)=O)[C@@H](C)CC)[C@@H](C)CC)[C@@H](C)CC)C(=O)N[C@@H](CCC(N)=O)C(=O)N[C@@H](CCCCN)C(=O)N[C@@H](CCC(N)=O)C(=O)N[C@H](C(=O)N[C@@H](C)C(=O)N[C@@H](C)C(=O)N[C@H](C(=O)N[C@@H](CCC(N)=O)C(=O)N[C@@H](CCCCN)C(=O)N[C@@H](CCC(N)=O)C(=O)N[C@H](C(=O)N[C@@H](Cc1ccc(O)cc1)C(=O)N[C@@H](CCCNC(=N)N)C(=O)N[C@@H](CCSC)C(=O)N[C@H](C(=O)N1CCC[C@H]1C(N)=O)[C@@H](C)O)[C@@H](C)CC)[C@@H](C)CC)[C@@H](C)CC [Q2aI] (Ac-MSIEEIQKQIAAIQKQIAAIQKQIYRMTP-NH2)
estimated transition temperature (292 microM peptide in 20 mM phosphate buffer (PBS), 150 mM NaCl, pH 7.2, CD signal at 222 nM, difficult to determine because transition incomplete): around 97 degrees Celsius | did not quantitatively unfold up to (CD thermal scan): 95 degrees Celsius | thermal stability (resistance against thermal denaturation), in words (CD thermal scan): extremely thermostable; also recorded: thermally stable | thermal stability (resistance against thermal denaturation), in words (CD thermal scan, listed as all-isoleucine core peptide): very high thermal stability | reversibility of thermal unfolding (down-scan recovery of the CD signal) (up and down thermal scan, about 1 degree Celsius per minute): full reversibility

CC[C@H](C)[C@H](NC(=O)[C@H](C)NC(=O)[C@H](C)NC(=O)[C@H](CCC(N)=O)NC(=O)[C@H](CCC(N)=O)NC(=O)[C@H](CCCCN)NC(=O)[C@H](CCC(N)=O)NC(=O)[C@@H](NC(=O)[C@H](CCC(=O)O)NC(=O)[C@H](CCC(=O)O)NC(=O)[C@@H](NC(=O)[C@H](CO)NC(=O)[C@H](CCSC)NC(C)=O)[C@@H](C)CC)[C@@H](C)CC)C(=O)N[C@@H](CCC(N)=O)C(=O)N[C@@H](CCCCN)C(=O)N[C@@H](CCC(N)=O)C(=O)N[C@H](C(=O)N[C@@H](C)C(=O)N[C@@H](C)C(=O)N[C@H](C(=O)N[C@@H](CCC(N)=O)C(=O)N[C@@H](CCCCN)C(=O)N[C@@H](CCC(N)=O)C(=O)N[C@H](C(=O)N[C@@H](Cc1ccc(O)cc1)C(=O)N[C@@H](CCCNC(=N)N)C(=O)N[C@@H](CCSC)C(=O)N[C@H](C(=O)N1CCC[C@H]1C(N)=O)[C@@H](C)O)[C@@H](C)CC)[C@@H](C)CC)[C@@H](C)CC [Q2a] (Ac-MSIEEIQKQQAAIQKQIAAIQKQIYRMTP-NH2)
thermal stability (resistance against thermal denaturation), in words (CD thermal scan): moderately stable
